pIC50: −log10 of the molar value. ≈ marks a conversion by molar mass, not a printed value. Read-outs that look alike come from different tables or passages of the source.
Tests used:
Leukemia L 1210 cells = experiment: in vitro clonogenic L1210 assay (inhibition of colony formation in soft agar); assay type: cell-based; conditions: Mus musculus, L1210, 72 h, read-out: ID50 (dose giving 50% inhibition of L1210 colony formation)
Description: The in vitro clonogenic assay was effected in Leukemia L 1210 cells in soft agar medium (0.3%). […] In the analysis, the inhibition of the L 1210 colony formation by sparsomycin and derivatives thereof is determined for various concentrations, and the dose giving 50% inhibition of the colony formation, as compared with non-treated control cells is calculated (ID50).
From a suspension culture one hundred L 1210 cells are plated out in 35 mm culture dishes (Falcon) containing 1 ml soft agar culture medium and the compound to be investigated in suitable concentrations. The soft agar culture medium consists of Dulbecco's medium supplemented with 20% horse serum, 60 μmole 2-mercaptoethanol, 20 mg/ml L-asparagine, 75 mg/ml DEAE dextran (molecular weight 2×10^6) and 0.3% bacto agar (Difco). The culture dishes were incubated at 37° C. in an atmosphere of 10% CO2 in humidified air for 3 days. After this period of continuous exposure to the medicament the colonies were counted and dose-effect curves made. From these curves, the medicament dose is calculated which causes 50% inhibition of the colony formation as compared with non-treated control cells.

[1] = target: ribosomes from S. cerevisiae Y166 (peptidyl transferase activity); experiment: polyphenylalanine synthesis assay, S. cerevisiae ribosomes; assay type: biochemical; conditions: concentration giving 50% inhibition relative to control; 30° C., 30 min; read-out: ED50 polyPhe synthesis S. cerevisiae
Description: (§1) The peptidyl transferase activity was measured by the polyphenylalanine synthesis assay (Nirenberg and Matthei, Proc. Natl. Acad. Sci. USA 47 (1961) 1588), the fragment reaction (Monro, Methods Enzymol. 20 (1971) 472) and the puromycin reaction. In all the in vitro tests, i.e. polyPhe synthesis, fragment reaction and puromycin reaction, ribosomes from E. coli MRE600 and S. cerevisiae Y166 were used. The reaction mixture for polyphenylalanine synthesis was slightly different for E. coli and S. cerevisiae.
S. cerevisiae: The test was carried out as indicated above for E. coli. The phosphoenol pyruvate and pyruvate kinase were, however, replaced by creatine phosphate (20 mM) and creatine phosphokinase (50 μg/ml). The incubation was performed at 30° C. for 30 min and the samples were processed as described above. Under these conditions the control samples polymerized 5-14 and 3-8 molecules of phenylalanine per ribosome derived from E. coli and S. cerevisiae, respectively. Ribosomes and supernatant factors from E. coli and S. cerevisiae were prepared according to standard procedures, described by Staehelin and Maglott, Methods Enzymol. 20 (1971) 449, and by Sanchez-Madrid et al, Eur. J. Biochem. 98 (1979) 409.
(§2) The concentration of sparsomycin or an analog giving 50% inhibition of the protein synthesis relative to the control is given in ED50.

[2] = test system: ribosomes from E. coli MRE600 (peptidyl transferase activity); experiment: fragment reaction, E. coli ribosomes; assay type: biochemical; conditions: 50% inhibition relative to control; 0° C., 30 min, 33% methanol; read-out: ED50 Fragment reaction E. coli
Description: as §1
(§3) The fragment reaction was carried out in 150 μl of 33 mM Tris-HCl pH 7.4, 270 mM KCl, 13 mM magnesium acetate containing 1 mg/ml of ribosomes, 2 mM puromycin, 1 pmol of N-acetyl-[^3 H]Leu-ACCAC(U), the required concentration of sparsomycin or its analogue and 33% methanol. The reaction was initiated by the addition of the alcohol and allowed to proceed at 0° C. for 30 min, and was then stopped by the addition of 100 μl of 0.3M sodium acetate pH 5.5 saturated with MgSO4. The samples were extracted with 1.5 ml of ethyl acetate and 1 ml of the organic phase was checked for radioactivity. The 3' terminal pentanucleotide N-acetyl-[^3 H]Leu-ACCAC(U) was prepared from N-acetyl-[^3 H]Leu-tRNA by ribonuclease T1 as described by Monro.
as §2

[3] = target: ribosomes from S. cerevisiae Y166 (peptidyl transferase activity); experiment: fragment reaction, S. cerevisiae ribosomes; assay type: biochemical; conditions: 50% inhibition relative to control; 0° C., 30 min, 33% methanol; read-out: ED50 Fragment reaction S. cerevisiae
Description: as §1, §3, §2

[4] = test system: ribosomes from E. coli MRE600 (peptidyl transferase activity); experiment: puromycin reaction, E. coli ribosomes; assay type: biochemical; conditions: 50% inhibition relative to control; read-out: ED50 Puromycin reaction E. coli
Description: as §1
The puromycin reaction was carried out in 25 μl of 30 mM KCl, 50 mM NH4 Cl, 30 mM Tris-HCl pH 7.8, 20 mM MgCl2, 10 pmol of ribosomes, 100 μg/ml of poly(U) and 15 pmol of N-acetyl-[^3 H]Phe-tRNA. The reaction mixture was incubated for 30 min at 37° C. and then 1 μl of 20 mM puromycin was added and incubation was followed for 5 more min. To the samples 250 μl of 0.1M sodium carbonate and 0.7 ml of ethyl acetate were added, shaken for 1 min, centrifuged to separate the phases and 0.5 ml of the upper organic phase taken for estimating the radioactivity.
as §2

E. coli MRE600 = experiment: inhibition of bacterial growth; assay type: cell-based
Description: Inhibition of bacterial growth was tested in solid as well as in liquid medium. For the test on agar plates, petri dishes containing 15 ml of LB medium (10 g/l bactotryptone, 5 g/l yeast extract and 5 g/l NaCl) were covered with 5 ml of the same medium--kept melted at 40° C.--containing 40 μl of a culture of the required bacterium at approximately an A550 of 2. After solidification, 3 mm filter disks containing 4 μl of a 10 mM solution of the antibiotic in 50EtOH/DMSO were placed on the surface of the agar and the plates were incubated at 37° C. for 24 h. For the test in liquid medium, E. coli MRE600 was grown in LB medium supplemented with 0.2% of glucose to exponential phase (A560 =0.1) and distributed in 1 ml aliquots in tubes containing the required amount of antibiotic. The tubes were incubated at 37° C. for 4 h, subsequently diluted with 3 ml of 0.1% of sodium azide to stop growth and the absorption at 550 nm was measured. The absorption of the medium without addition of antibiotic was considered as 100% growth.

L1210 leukemia = experiment: in vivo antitumor assay, L1210 leukemia; design: species or system CDF1 mice
Description: (§4) The antitumor activity of the present compounds has also been investigated by in vivo assays. In the assays, mice were treated for nine days in succession, starting at 24 hours after the time of tumor implant.
(§5) The results are shown in tables 4, 5 and 6 and represent the number of tumor-bearing mice surviving after administration of optimal doses of the test compound, expressed as a treatment/control (T/C×100%) ratio. In the tables, information is provided with respect to the sex, dose, weight loss of treated animals compared to control animals, and the number of survivors in groups of 6 mice.

P388 leukemia = experiment: in vivo antitumor assay, P388 leukemia; design: species or system CDF1 mice; conditions: for T/C (survival, treatment/control x 100%): ip daily x9, optimal dose mg/kg: sparsomycin 0.125, n-octyl 22.5, benzyl 2.0, 2e 20.0
Description: as §4, §5

[5] = test system: RC (renal cell) carcinoma; experiment: in vivo antitumor assay, RC (renal cell) carcinoma; design: species or system CDF1 mice; conditions: for T/C (survival, treatment/control x 100%): ip daily x9, optimal dose mg/kg: sparsomycin 0.125, n-octyl 20.0, benzyl 2.7, 2a 1.1
Description: as §4, §5

acute toxicity LD50 = assay type: in vivo, mice; conditions: mouse, in vivo, ip, daily x9 injections, mice; 95% confidence interval given; read-out: LD 50 in mg/kg/inj i.p. in mice
Text: It appears therefrom that ala-sparsomycin is about 9× less toxic than sparsomycin.

solubility in water = assay type: physicochemical
[6] = test system: ribosomes from E. coli MRE600 (peptidyl transferase activity); experiment: polyphenylalanine synthesis assay, E. coli ribosomes; assay type: biochemical; conditions: concentration giving 50% inhibition relative to control; 37° C., 30 min; read-out: ED50 polyPhe synthesis E. coli
Description: as §1
E. coli: The reaction mixture (50 μl) contained 50 mM Tris-HCl pH 7.6, 15 mM MgCl2, 90 mM KCl, 15 mM β-mercapto ethanol, 1 mM GTP, 10 mM ATP, 0.2 mg/ml of polyuridylic acid, 1.5 mg/ml tRNA, 0.3 μM of ribosomes, 2.5 mg/ml of phosphoenol pyruvate, 20 μg/ml of pyruvate kinase, the required concentration of sparsomycin or its analogue and 5 μl of supernatant fraction S-100. Subsequently, [^3 H]phenylalanine, 30 μM (about 60 cpm/pmol) was added to start the reaction. Incubation was at 37° C. for 30 min. The reaction was stopped by the addition of 1 ml of 10% TCA and the samples were filtered through glass fiber filters. The filters were washed with 10 ml of cold 10% TCA, dried and counted for radioactivity.
as §2

[7] = Escherichia coli, MRE600, 4 h, read-out: Growth inhibition E. coli MRE600 ED50
[8] = female mice, ip daily x9, optimal dose mg/kg: sparsomycin 0.25, n-octyl 12.0, benzyl 10.0, 2a 2.5, 2e 13.3
[9] = female mice, ip daily x9, dose mg/kg: sparsomycin 0.25, n-octyl 12.0, benzyl 10.0, 2a 2.5, 2e 13.3
[10] = male mice, ip daily x9, optimal dose mg/kg: sparsomycin 0.125, n-octyl 20.0, benzyl 4.0, 2a 1.7
[11] = male mice, ip daily x9, dose mg/kg: sparsomycin 0.125, n-octyl 20.0, benzyl 4.0, 2a 1.7
[12] = male mice, ip daily x9, dose mg/kg: sparsomycin 0.125, n-octyl 22.5, benzyl 2.0, 2e 20.0
[13] = male mice, ip daily x9, dose mg/kg: sparsomycin 0.125, n-octyl 20.0, benzyl 2.7, 2a 1.1
[14] = soft agar 0.3%, 3 days continuous exposure, vs non-treated control cells

| SMILES | pIC50 (Leukemia L 1210 cells) | pIC50 [1] | pIC50 [2] | pIC50 [3] | pIC50 [4] | pIC50 (E. coli MRE600; [7]) | T/C (survival, treatment/control x 100%) (L1210 leukemia; [8]) [%] | cures (survivors in groups of 6 mice) (L1210 leukemia; [9]) | T/C (survival, treatment/control x 100%) (L1210 leukemia; [10]) [%] | cures (survivors in groups of 6 mice) (L1210 leukemia; [11]) | T/C (survival, treatment/control x 100%) (P388 leukemia; male mice) [%] | cures (survivors in groups of 6 mice) (P388 leukemia; [12]) | T/C (survival, treatment/control x 100%) ([5]; male mice) [%] | cures (survivors in groups of 6 mice) [5, 13] | LD50 (acute toxicity LD50) [mg/kg] | solubility (solubility in water) [µg/mL] | weight loss (T - C) (L1210 leukemia; mouse, in vivo, ip) [g] | weight loss (T - C) (P388 leukemia; mouse, in vivo, ip) [g] | pIC50 [6] | pIC50 (Leukemia L 1210 cells; [14]) | also measured |
| --- | --- | --- | --- | --- | --- | --- | --- | --- | --- | --- | --- | --- | --- | --- | --- | --- | --- | --- | --- | --- | --- |
| Cc1[nH]c(=O)[nH]c(=O)c1/C=C/C(=O)N[C@@H](CO)C[S@@+]([O-])CSCc1ccccc1 [benzyl-sparsomycin] | 6.96 | 6.22 | 5.12 | 5.59 | 6.89 | 6.00 | 217 | 0/6 | 162 | 0/6 | 133 | 0/6 | 158 | 0/6 | 5 | 1500 (≈ 3430 µM) |  |  |  |  | weight loss (T - C) (L1210 leukemia; [9]): -1.6 g; weight loss (T - C) (L1210 leukemia; male mice, ip daily x9 from 24 h after implant, dose mg/kg: sparsomycin 0.125, n-octyl 20.0, benzyl 4.0, 2a 1.7): -1.8 g; weight loss (T - C) (P388 leukemia; [12]): -2.2 g; weight loss (T - C) [5, 13]: -1.8 g |
| CCCCSC[S@+]([O-])C[C@H](C)NC(=O)/C=C/c1c(C)[nH]c(=O)[nH]c1=O [2e, (Sc Rs)-1-(n-butylthiomethyl)sulfinyl-2-[β-(6-methyl-5-uracilyl)acrylamido]-propane] |  |  |  |  |  |  | 161 | 0/6 |  |  | 146 | 0/6 |  |  | > 16 |  | -0.7 | -3.2 |  |  |  |
| CSC[S@@+]([O-])C[C@H](C)NC(=O)/C=C/c1c(C)[nH]c(=O)[nH]c1=O [3a, (Sc Ss)-1-(methylthiomethyl)sulfinyl-2-[β-(6-methyl-5-uracilyl)acrylamido]-propane] | 6.26 | 3.84 | 4.26 | 4.17 | 5.57 | 4.36 |  |  |  |  |  |  |  |  |  |  |  |  | 3.55 |  |  |
| CCCCCCCCSC[S@+]([O-])C[C@H](C)NC(=O)/C=C/c1c(C)[nH]c(=O)[nH]c1=O [2f, (Sc Rs)-1-(n-octylthiomethyl)sulfinyl-2-[β-(6-methyl-5-uracilyl)acrylamido]-propane] |  |  |  |  |  |  |  |  |  |  |  |  |  |  |  |  |  |  |  | 6.74 |  |
| CCCCCCCCSC[S@+]([O-])C[C@H](CO)NC(=O)/C=C/c1c(C)[nH]c(=O)[nH]c1=O [n-octyl-sparsomycin] |  | 5.89 | 4.22 | 3.52 | 6.60 |  | 153 | 0/6 | 152 | 0/6 | 150 | 0/6 | 179 | 0/6 | 29.5 | ~200 (≈ 435 µM) | -1.9 | -1.7 | 5.80 | 7.00 | pIC50 (E. coli MRE600; Escherichia coli, MRE600, 4 h; read-out: Growth inhibition E. coli MRE600 ED50): 5.60; weight loss (T - C) ([5]; mouse, in vivo, ip): -1.6 g |

— patent US4820712A, “Sparsomycin (SC-RS) compounds having antitumor activity, a process for their preparation and pharmaceutical compositions containing sparsomycin (SC-RS) compounds” (priority 1986, dated 1989)
